{"source": "patent US20230172901A1", "about": "“COMPOSITIONS AND METHODS FOR THE PROPHYLAXIS AND TREATMENT OF FIBROTIC AND INFLAMMATORY CONDITIONS” (GRETALS AUSTRALIA PTY LTD, priority 2020, published 2023)", "assay_type_in_all_cases": "in vivo", "key": {"[1]": {"test_system": "sheep model for pulmonary fibrosis, bleomycin-injured lung segments", "assay": "Example 2: segmental lung compliance (Cseg) in bleomycin-injured sheep lung segments", "protocol": "Segmental compliance (Cseg) was assessed using pressure responses to flow in the different segments as indicated FIG. 2 in awake, consciously breathing sheep using a wedged-bronchoscope technique. Briefly, a custom-built Segmental Lung Airway Monitoring (SLAM) System was used to monitor the segmental flow and pressure. After first determining the bronchoscope resistance to the set flow, the bronchoscope was wedged into an airway in the lung segment of interest and a constant flow (6 mL/s) of 5% C02 in air was passed through the working channel of the bronchoscope.\nSegmental lung compliance was calculated. Briefly, after the bronchoscope was wedged into the specific region of the lung, pressure was allowed to reach a steady state. After approximately 5 s at steady state, airflow was interrupted turning off the airflow supply. Segmental compliance was then calculated from the pressure-flow decay curve generated from this procedure. The process was repeated 3 times for each segment and expressed as an average value for Cseg. The pressure was recorded by a PM-1000 Transducer Amplifiers (CWE Inc., Admore, USA) and flow was recorded using a mass flow meter (824-S, Sierra Instruments, Monterey, USA). Data were acquired with Data Acquisition Card (PCI-6233; National Instruments Corp., Austin, USA) and was analysed with the SLAM system (Latitude E6520, Dell Computer Corporation, Texas USA and LabVIEW, National Instruments Corp., Austin, USA). All resistance measurements were corrected for the resistance of flow through the working channel of the bronchoscope.\n(§1) In this study, a total of 10 sheep were used. Fibrosis in two lung segments of each sheep in a similar manner as performed in Example 1 herein. Using this procedure (as detailed further below) the fibrosis was confined to small, isolated regions in the lungs leaving the remaining 90-95% of the healthy unaffected lungs to undertake normal respiratory function.\nAll sheep (n=10) in the study were challenged with 2 single doses of bleomycin (3 units) per lung segment, a fortnight apart and the animals were kept for a little over 5 weeks after the final bleomycin dose. Bleomycin is a well-known agent for inducing fibrosis in the lungs. The administration procedure involves inserting a bronchoscope into lung segments in the right and left lung, and then slowly infusing the bleomycin into two segments as shown in FIG. 2 via the bronchoscope biopsy port. […]\nLung function was assessed in all test lung-segments (left and right caudal lobes, and medial lobe in each sheep). The functional capacity of the lung segments was measured through the endoscope using the procedure outlined in Example 1 herein. The lung function parameter assessed in this study is referred to as compliance in the lung segment (abbreviated to Cseg). […]"}, "[2]": {"test_system": "sheep model for pulmonary fibrosis, bleomycin-injured lung segments", "assay": "Example 2: bronchoalveolar lavage (BAL) inflammatory cell counts", "source_text": "as §1\n(§2) All sheep (n=10) in the study were challenged with 2 single doses of bleomycin (3 units) per lung segment, a fortnight apart and the animals were kept for a little over 5 weeks after the final bleomycin dose. Bleomycin is a well-known agent for inducing fibrosis in the lungs. The administration procedure involves inserting a bronchoscope into lung segments in the right and left lung, and then slowly infusing the bleomycin into two segments as shown in FIG. 2 via the bronchoscope biopsy port.\n(§3) In the study detailed in Example 1 herein, the dose-rate of pinocembrin was 7 mg pinocembrin per sheep, per week.\n(§4) For control purposes the lung segment in the opposite lung was used as a bleomycin-positive, without drug, control, as indicated in FIG. 1. The bioactive molecules in vehicle, were delivered as 5 ml infusions through the biopsy port of the bronchoscope. Note that to nullify any small differences (e.g. physiological or anatomical etc.) between the left and right lungs, the infusions of pinocembrin were randomized between the left and right caudal lung segments. Half the animals (5 sheep) received pinocembrin to the right caudal lung segments, while the other 5 sheep received pinocembrin to the left caudal lung segments. The right medial lung segment was left untreated and used for healthy lung control tissue which was sampled at autopsy (FIG. 2).\nFor each of the bronchoalveolar (BAL) samplings at the timepoints listed in FIG. 1, the endoscope was manipulated into a specific lung-segment for sampling, usually passing through about 3-4 airway branches. For BAL sampling, 10 ml of sterile saline was infused through the biopsy port of the endoscope into the specific lung-segment and then recovered into a syringe through the same port. This procedure recovered between 3 and 5 ml of BAL fluid. The sampling method collects cells for analyses from the small airway and alveolar lumens of the specific lung-segment where the bronchoscope was navigated to. The BAL cells from each segment were centrifuged onto glass slides and stained for differential cell counting of inflammatory cells with Hem-Quik."}, "[3]": {"test_system": "sheep model for pulmonary fibrosis, bleomycin-injured lung segments", "assay": "Example 2: CD4+ and CD8+ T cells in lung parenchyma (immunohistochemistry)", "source_text": "as §1, §2, §3\nas §4, with “2). […]” for “2).”\nImmunohistochemistry was performed on these frozen tissue sections using the indirect immunoperoxidase technique. […] For cell counts, either 200 immunoperoxidase positive cells were counted in a maximum of 20 microscope fields (×400 magnification) using an area-calibrated grid, or a minimum of 20 microscope fields were counted for less frequent counts."}, "sheep": {"test_system": "sheep", "assay": "Example 2: animal health and safety of pinocembrin administration", "protocol": "as §3, §4\nThe sheep were bled at the times indicated in FIG. 1 by sampling 10 ml of blood from the jugular vein into a tube containing heparin. The blood was processed for blood cell count analyses.\nHealth checks were routinely performed throughout the treatment periods and throughout the trial until euthanasia."}, "[4]": {"details": "week 12, vs bleomycin alone without pinocembrin, 4 weekly infusions of 7 mg, n=10 sheep"}, "[5]": {"details": "week 12 post-mortem, vs bleomycin alone, 4 weekly infusions of 7 mg, n=10 sheep"}, "[6]": {"details": "pinocembrin treatment period, 10 sheep"}, "[7]": {"details": "throughout the pinocembrin treatment period, 10 sheep"}}, "note": "Entries after “also recorded” stand apart in the source; their conditions may differ."}
{"smiles": "O=C1CC(c2ccccc2)Oc2cc(O)cc(O)c21", "note": "(stereo not shown) [pinocembrin, 5,7-Dihydroxy-2-Phenyl-2,3-Dihydro-4H-Chromen-4-One]", "values": [{"measurement": "lung function in lung segments injured by bleomycin (summary)", "setting": "[1]; 4 weekly doses of 7 mg, n=10 sheep", "result": "significantly improved"}, {"measurement": "sheep with improved function (Cseg) in bleomycin-damaged, pinocembrin-treated lung segments", "setting": "[1]; individual sheep data, 4 weekly infusions of 7 mg, 10 sheep", "result": "eight out of ten"}, {"measurement": "percentage change in compliance from baseline", "setting": "[1]; week 0 to week 11, after four weekly administrations, n=10 sheep", "result": "significantly improved"}, {"measurement": "mean segmental compliance (Cseg) compared with untreated healthy control lung segments", "setting": "[1]; week 11, 7 mg in 10% DMSO infused into bleomycin-injured caudal segment, 4 weekly doses, n=10 sheep", "result": "not significantly different from the untreated healthy control lung segments"}, {"measurement": "sheep with lower inflammatory cell numbers in BAL fluid", "setting": "[2]; individual sheep data, vs bleomycin without pinocembrin, 10 sheep", "result": "Nine out of ten"}, {"measurement": "neutrophil, % of total BAL cells", "setting": "[2]; pinocembrin-treated bleomycin-injured lung segments (7.4% in bleomycin without drug)", "result": 3.7, "unit": "%"}, {"measurement": "numbers of inflammatory cells (neutrophils, eosinophils and lymphocytes) in BAL fluid", "setting": "[2]; [4]", "result": "significantly lower; also recorded: significantly reduces"}, {"measurement": "numbers of neutrophils in BAL fluid", "setting": "[2]; [4]", "result": "significantly lower"}, {"measurement": "sheep with lower CD8+ and CD4+ T cells after pinocembrin treatment", "setting": "[3]; individual sheep data, 10 sheep", "result": "All sheep"}, {"measurement": "numbers of CD4+ T cells in the lung parenchyma", "setting": "[3]; [5]", "result": "significantly lower; also recorded: significant reduction"}, {"measurement": "numbers of CD8+ T cells in the lung parenchyma", "setting": "[3]; [5]", "result": "significantly lower; also recorded: significant reduction"}, {"measurement": "untoward health effects (clinical assessment criteria)", "setting": "sheep; all ten sheep undergoing the trial", "result": "no untoward health effects"}, {"measurement": "differential counts of blood leukocytes", "setting": "sheep; both sampling time points, 10 sheep", "result": "within normal ranges"}, {"measurement": "additional pathology or lung damage in pinocembrin exposed segments", "setting": "sheep; lung segment exposed to pinocembrin, post-mortem", "result": "no obvious signs of additional pathology or lung damage"}, {"measurement": "adverse health events", "setting": "sheep; [6]", "result": "no otherwise adverse health events"}, {"measurement": "weight gain", "setting": "sheep; [6]", "result": "expected normal range"}, {"measurement": "core temperature readings", "setting": "sheep; [7]", "result": "within the normal range"}, {"measurement": "heart, and respiratory rates", "setting": "sheep; [7]", "result": "within normal ranges"}, {"measurement": "animal health during treatment period", "setting": "sheep; week 8 to week 12, 7 mg per sheep per week into one lung segment, 10 sheep", "result": "remained healthy"}]}
